The source of these data is publication PMC6606611, “A comparative analysis of secreted protein disulfide isomerases from the tropical co-endemic parasites Schistosoma mansoni and Leishmania major” (Scientific Reports, 2019).

Structures are written as SMILES. pIC50: −log10 of the molar value.

The target of test [1] is T1, LmPDI (Leishmania major, UniProt Q8I8E1).
T1 construct: gene pdi; recombinant, N-terminal cleavable His-FLAG tag
As to the kind of experiment: fluorimetric di-eosin-GSSG disulfide reductase assay, […] protein. The class given is biochemical.

The target in test [2] is T2, HsPDIA3/ERp57 (Homo sapiens, UniProt P30101).
T2 construct: gene PDIA3
Put plainly: biochemical.

Test [3] deals with T3, SmERp60 (Schistosoma mansoni, UniProt P38658).
T3 construct: recombinant, GST tag cleaved
T3 sequence (P38658 15-484): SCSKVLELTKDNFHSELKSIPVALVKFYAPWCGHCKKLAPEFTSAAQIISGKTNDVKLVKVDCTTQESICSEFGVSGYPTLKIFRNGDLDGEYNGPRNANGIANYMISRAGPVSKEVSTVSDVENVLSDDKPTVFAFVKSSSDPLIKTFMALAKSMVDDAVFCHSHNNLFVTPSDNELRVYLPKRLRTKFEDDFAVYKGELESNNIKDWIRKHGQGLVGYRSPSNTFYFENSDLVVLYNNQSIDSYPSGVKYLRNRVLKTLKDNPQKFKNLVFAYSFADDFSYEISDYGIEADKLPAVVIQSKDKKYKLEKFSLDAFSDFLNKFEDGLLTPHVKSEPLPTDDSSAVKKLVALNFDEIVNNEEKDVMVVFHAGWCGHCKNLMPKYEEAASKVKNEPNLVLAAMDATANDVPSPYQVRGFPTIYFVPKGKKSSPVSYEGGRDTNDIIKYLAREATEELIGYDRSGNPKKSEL
Put plainly: fluorimetric di-eosin-GSSG disulfide reductase assay, […] protein. The class given is biochemical.

T2 sequence (P30101 25-505): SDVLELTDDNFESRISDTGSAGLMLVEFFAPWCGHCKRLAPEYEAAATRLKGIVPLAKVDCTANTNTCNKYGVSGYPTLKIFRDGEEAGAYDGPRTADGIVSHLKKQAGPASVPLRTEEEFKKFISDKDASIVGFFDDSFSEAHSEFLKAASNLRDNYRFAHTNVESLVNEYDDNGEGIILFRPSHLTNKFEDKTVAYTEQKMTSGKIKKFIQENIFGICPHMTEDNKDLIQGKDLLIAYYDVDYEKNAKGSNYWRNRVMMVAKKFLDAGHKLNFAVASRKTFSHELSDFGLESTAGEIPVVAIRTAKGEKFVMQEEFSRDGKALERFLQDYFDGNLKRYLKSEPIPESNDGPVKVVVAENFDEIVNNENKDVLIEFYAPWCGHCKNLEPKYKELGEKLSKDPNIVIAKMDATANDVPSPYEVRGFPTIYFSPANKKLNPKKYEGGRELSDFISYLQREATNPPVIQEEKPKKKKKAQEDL
T1 sequence (Q8I8E1 entry or part of it): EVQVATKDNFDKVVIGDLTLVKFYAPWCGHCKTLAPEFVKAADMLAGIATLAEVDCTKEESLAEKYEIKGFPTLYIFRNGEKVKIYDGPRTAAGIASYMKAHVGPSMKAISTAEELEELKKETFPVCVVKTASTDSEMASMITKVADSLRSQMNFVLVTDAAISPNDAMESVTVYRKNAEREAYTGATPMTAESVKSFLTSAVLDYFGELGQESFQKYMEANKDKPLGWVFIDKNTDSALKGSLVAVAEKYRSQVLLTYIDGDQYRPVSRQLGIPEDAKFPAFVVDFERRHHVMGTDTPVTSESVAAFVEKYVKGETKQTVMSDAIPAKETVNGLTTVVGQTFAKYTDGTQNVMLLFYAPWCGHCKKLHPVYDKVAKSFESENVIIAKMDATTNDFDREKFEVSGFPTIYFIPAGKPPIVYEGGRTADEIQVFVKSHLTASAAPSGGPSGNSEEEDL

With `O=C1O[C@H]2[C@@H]3OC(=O)c4cc(O)c(O)c(O)c4-c4c(O)c(O)c5oc(=O)c6c(c(O)c(O)c7oc(=O)c4c5c76)-c4c(cc(O)c(O)c4O)C(=O)OC[C@H]3OC(O)[C@@H]2OC(=O)c2cc(O)c(O)c(O)c2-c2c1cc(O)c(O)c2O` (mixture of isomers) [punicalagin], the pIC50 in test [1] was 5.14; in test [2], 6.30.

On to `COc1cc([C@H]2Oc3cc([C@H]4Oc5cc(O)cc(O)c5C(=O)[C@@H]4O)ccc3O[C@@H]2CO)ccc1O` [silibinin A], for which, in test [3], the pIC50 is 6.12.

What is called pIC50 is the negative decadic logarithm of the IC50, by convention in mol/L.
